According to PubChem BioAssay AID192 (DTP/NCI, 2004):
Several values for one entry are separate records, joined by “and”; a condition that tells them apart may be missing. Identical values can stand only once. Inconclusive results and toxic doses are left out.

System: BDF1 mice, B16 melanoma ip, median survival T/C
Assay: NCI In Vivo Anticancer Drug Screen. Data for tumor model B16 Melanoma (intraperitoneal) in B6D2F1 (BDF1) mice
Settings: endpoint: median survival time, higher = longer survival
How it was run: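 Values are ratios of treated (T) to vehicle-control (C) measurements of survival or tumor size in tumor-bearing mice.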

[1] = dose: 25.0 mg/kg/injection, schedule: Q01DX009 (ip), vehicle: Klucel (hydroxypropylcellulose) (HPC)
[2] = dose: 50.0 mg/kg/injection, schedule: Q01DX009 (ip), vehicle: Klucel (hydroxypropylcellulose) (HPC)
[3] = dose: 100.0 mg/kg/injection, schedule: Q01DX009 (ip), vehicle: Klucel (hydroxypropylcellulose) (HPC)
[4] = dose: 200.0 mg/kg/injection, schedule: Q01DX009 (ip), vehicle: Klucel (hydroxypropylcellulose) (HPC)
[5] = dose: 400.0 mg/kg/injection, schedule: Q01DX009 (ip), vehicle: Klucel (hydroxypropylcellulose) (HPC)
[6] = dose: 12.5 mg/kg/injection, schedule: Q01DX009 (ip), vehicle: saline
[7] = dose: 25.0 mg/kg/injection, schedule: Q01DX009 (ip), vehicle: saline
[8] = dose: 100.0 mg/kg/injection, schedule: Q01DX009 (ip), vehicle: saline with Tween-80
[9] = dose: 200.0 mg/kg/injection, schedule: Q01DX009 (ip), vehicle: saline with Tween-80
[10] = dose: 12.5 mg/kg/injection, schedule: Q01DX009 (ip), vehicle: saline with Tween-80
[11] = dose: 25.0 mg/kg/injection, schedule: Q01DX009 (ip), vehicle: saline with Tween-80
[12] = dose: 6.25 mg/kg/injection, schedule: Q01DX009 (ip), vehicle: saline with Tween-80

Compound: CCN(CC)P(=O)(N1CC1C)N1CC1C (stereo not drawn)
- T/C (dose: 9.3 mg/kg/injection, schedule: Q01DX009 (ip), vehicle: saline): 123 % of control
- T/C (dose: 18.7 mg/kg/injection, schedule: Q01DX009 (ip), vehicle: saline): 112 % of control
- T/C (dose: 37.5 mg/kg/injection, schedule: Q01DX009 (ip), vehicle: saline): 99 % of control

Compound: CCO/C([O-])=C/[P+](c1ccccc1)(c1ccccc1)c1ccccc1
- T/C (dose: 12.5 mg/kg/injection, schedule: Q01DX009 (ip), vehicle: Klucel (hydroxypropylcellulose) (HPC)): 103 % of control
- T/C [1]: 103 % of control
- T/C [2]: 100 % of control

Compound: Cc1ccc(NS(=O)(=O)c2ccc(F)cc2)cc1C
- T/C [3]: 96 % of control
- T/C [4]: 100 % of control
- T/C [5]: 93 % of control

Compound: CCCCCc1cc(O)c2c(c1)OC(C)(C)c1ccc(C)cc1-2
- T/C (dose: 64.0 mg/kg/injection, schedule: Q01DX009 (ip), vehicle: saline): 115 % of control
- T/C (dose: 128.0 mg/kg/injection, schedule: Q01DX009 (ip), vehicle: saline): 110 % of control
- T/C (dose: 256.0 mg/kg/injection, schedule: Q01DX009 (ip), vehicle: saline): 112 % of control
- T/C (dose: 512.0 mg/kg/injection, schedule: Q01DX009 (ip), vehicle: saline): 88 % of control

Compound: NC(=O)C1(N2CCCCC2)CCN(CCCC(=O)c2ccc(F)cc2)CC1
- T/C (dose: 6.25 mg/kg/injection, schedule: Q01DX009 (ip), vehicle: saline): 108 % of control
- T/C [6]: 108 % of control
- T/C [7]: 113 % of control
- T/C (dose: 50.0 mg/kg/injection, schedule: Q01DX009 (ip), vehicle: saline): 105 % of control
- T/C (dose: 100.0 mg/kg/injection, schedule: Q01DX009 (ip), vehicle: saline): 105 % of control

Compound: COc1cc2c(cc1O)C(=O)CCCC2
- T/C [8]: 107 % of control
- T/C [9]: 101 % of control
- T/C (dose: 400.0 mg/kg/injection, schedule: Q01DX009 (ip), vehicle: saline with Tween-80): 89 % of control and 101 % of control

Compound: COc1ccc2c(NCCCCCCCCNc3c4ccccc4nc4cc(OC)ccc34)c3ccccc3nc2c1
- T/C (dose: 3.75 mg/kg/injection, schedule: Q01DX009 (ip), vehicle: distilled water + alcohol): 95 % of control

Compound: CC(=O)CC(=O)Nc1cc(C)c(NC(=O)CC(C)=O)cc1C
- T/C [3]: 93 % of control
- T/C [4]: 93 % of control

Compound: COc1ccc(CSC(=S)NNc2ccccc2)cc1
- T/C [3]: 107 % of control
- T/C [4]: 103 % of control
- T/C [5]: 106 % of control

Compound: C=C1C(=O)O[C@H]2/C=C(/C)C3=CC(=O)[C@@](C)(C[C@@H](OC(=O)/C(C)=C\C)C12)O3 (stereo partly drawn)
- T/C (dose: 0.75 mg/kg/injection, schedule: Q01DX009 (ip), vehicle: Klucel (hydroxypropylcellulose) (HPC)): 98 % of control
- T/C (dose: 1.5 mg/kg/injection, schedule: Q01DX009 (ip), vehicle: Klucel (hydroxypropylcellulose) (HPC)): 93 % of control
- T/C (dose: 3.0 mg/kg/injection, schedule: Q01DX009 (ip), vehicle: Klucel (hydroxypropylcellulose) (HPC)): 88 % of control
- T/C (dose: 6.0 mg/kg/injection, schedule: Q01DX009 (ip), vehicle: Klucel (hydroxypropylcellulose) (HPC)): 91 % of control
- T/C (dose: 12.0 mg/kg/injection, schedule: Q01DX009 (ip), vehicle: Klucel (hydroxypropylcellulose) (HPC)): 90 % of control

Compound: Cc1ccc(C(=O)NC2C(=O)NC(C(C)C)C(=O)N3CCCC3C(=O)N(C)CC(=O)N(C)C(C(C)C)C(=O)OC2C)c2c1Oc1c(c(C(=O)NC3C(=O)NC(C(C)C)C(=O)N4CCCC4C(=O)N(C)CC(=O)N(C)C(C(C)C)C(=O)OC3C)c3nc(CF)c(=O)oc3c1C)N2 (stereo not drawn)
- T/C (dose: 0.13 mg/kg/injection, schedule: Q04DX003 (ip), vehicle: saline + alcohol): 154 % of control
- T/C (dose: 0.25 mg/kg/injection, schedule: Q04DX003 (ip), vehicle: saline + alcohol): 164 % of control
- T/C (dose: 31.25 micrograms/kg/injection, schedule: Q04DX003 (ip), vehicle: water): 112 % of control
- T/C (dose: 125.0 micrograms/kg/injection, schedule: Q04DX003 (ip), vehicle: water): 180 % of control
- T/C (dose: 250.0 micrograms/kg/injection, schedule: Q04DX003 (ip), vehicle: water): 170 % of control
- T/C (dose: 500.0 micrograms/kg/injection, schedule: Q04DX003 (ip), vehicle: water): 175 % of control

Compound: O=C1C=C(c2ccccc2)C(=O)C=C1c1ccccc1
- T/C (dose: 6.0 mg/kg/injection, schedule: Q04DX003 (ip), vehicle: gum acacia): 100 % of control
- T/C (dose: 12.0 mg/kg/injection, schedule: Q04DX003 (ip), vehicle: gum acacia): 91 % of control
- T/C (dose: 25.0 mg/kg/injection, schedule: Q04DX003 (ip), vehicle: gum acacia): 92 % of control and 93 % of control

Compound: CC(=O)Oc1ccccc1C(=O)O
- T/C (dose: 15.7 mg/kg/injection, schedule: Q01DX009 (ip), vehicle: saline with Tween-80): 86 % of control
- T/C (dose: 31.3 mg/kg/injection, schedule: Q01DX009 (ip), vehicle: saline with Tween-80): 102 % of control
- T/C (dose: 62.5 mg/kg/injection, schedule: Q01DX009 (ip), vehicle: saline with Tween-80): 97 % of control

Compound: CCNCCCCCCNCC
- T/C [6]: 98 % of control
- T/C [7]: 90 % of control

Compound: CN(C)C=Nc1ccccc1
- T/C [3]: 100 % of control
- T/C [4]: 112 % of control
- T/C [5]: 109 % of control

Compound: COc1cc2c[n+](C)c3c4cc(OC)c(OC)cc4ccc3c2cc1OC
- T/C (dose: 6.25 mg/kg/injection, schedule: Q01DX001 (ip), vehicle: saline with Tween-80): 109 % of control
- T/C (dose: 12.5 mg/kg/injection, schedule: Q01DX001 (ip), vehicle: saline with Tween-80): 100 % of control
- T/C (dose: 25.0 mg/kg/injection, schedule: Q01DX001 (ip), vehicle: saline with Tween-80): 105 % of control
- T/C (dose: 50.0 mg/kg/injection, schedule: Q01DX001 (ip), vehicle: saline with Tween-80): 88 % of control
- T/C [2]: 108 % of control
- T/C (dose: 100.0 mg/kg/injection, schedule: Q01DX001 (ip), vehicle: saline with Tween-80): 90 % of control
- T/C [3]: 102 % of control

Compound: CC(C)(O)C(C)(O)c1ccc(Cl)cc1 (stereo not drawn)
- T/C [10]: 88 % of control
- T/C [11]: 91 % of control
- T/C (dose: 50.0 mg/kg/injection, schedule: Q01DX009 (ip), vehicle: saline with Tween-80): 103 % of control
- T/C [8]: 104 % of control
- T/C [9]: 92 % of control

Compound: ClC1=C(Cl)C(Cl)=C(Cl)C1=Cc1ccccc1
- T/C (dose: 1.56 mg/kg/injection, schedule: Q01DX009 (ip), vehicle: saline with Tween-80): 97 % of control
- T/C (dose: 3.13 mg/kg/injection, schedule: Q01DX009 (ip), vehicle: saline with Tween-80): 92 % of control
- T/C [12]: 102 % of control
- T/C [10]: 111 % of control
- T/C [11]: 95 % of control

Compound: CCOC(=O)C(N)C[S][Sn]([CH3])([CH3])[Cl] (stereo not drawn)
- T/C [12]: 105 % of control
- T/C [10]: 88 % of control
- T/C [11]: 100 % of control

Compound: C=C(NC(=O)C(=C)NC(=O)c1csc(C2=NC3c4csc(n4)C4NC(=O)c5csc(n5)C(C(C)(O)C(C)O)NC(=O)C5CSC(=N5)/C(=C/C)NC(=O)C(C(C)O)NC(=O)c5csc(n5)C3(CC2)NC(=O)C(C)NC(=O)C(=C)NC(=O)C(C)NC(=O)C(C(C)CC)NC2C=Cc3c(C(C)O)cc(nc3C2O)C(=O)OC4C)n1)C(N)=O (stereo not drawn)
- T/C [2]: 106 % of control
- T/C [3]: 109 % of control
- T/C [4]: 112 % of control

Compound: COc1ccc(NC(=O)Nc2ccc(C)c(Cl)c2)cc1
- T/C (dose: 100.0 mg/kg/injection, schedule: Q01DX009 (sc), vehicle: olive oil, sesame oil, peanut oil): 109 % of control
- T/C (dose: 200.0 mg/kg/injection, schedule: Q01DX009 (sc), vehicle: olive oil, sesame oil, peanut oil): 100 % of control
- T/C (dose: 400.0 mg/kg/injection, schedule: Q01DX009 (sc), vehicle: olive oil, sesame oil, peanut oil): 98 % of control

Compound: O=C(Nc1ccc(F)cc1)Nc1nccs1
- T/C [1]: 99 % of control
- T/C [2]: 104 % of control
- T/C [3]: 101 % of control
- T/C [4]: 104 % of control

Compound: COc1cc([C@@H]2c3cc4c(c(O)c3C[C@H]3COC(=O)[C@@H]32)OCO4)cc(OC)c1OC
- T/C (dose: 0.12 mg/kg/injection, schedule: Q01DX009 (ip), vehicle: suspension in saline): 100 % of control
- T/C (dose: 0.25 mg/kg/injection, schedule: Q01DX009 (ip), vehicle: suspension in saline): 102 % of control
- T/C (dose: 0.5 mg/kg/injection, schedule: Q01DX009 (ip), vehicle: saline): 109 % of control
- T/C (dose: 0.5 mg/kg/injection, schedule: Q01DX009 (ip), vehicle: suspension in saline): 120 % of control
- T/C (dose: 1.0 mg/kg/injection, schedule: Q01DX009 (ip), vehicle: saline): 114 % of control
- T/C (dose: 1.0 mg/kg/injection, schedule: Q01DX009 (ip), vehicle: suspension in saline): 121 % of control

Compound: COc1cc2c(cc1OC)C1CCN3CCCC3N1CC2 (stereo not drawn)
- T/C [1]: 105 % of control
- T/C [2]: 105 % of control
- T/C [3]: 86 % of control and 100 % of control and 116 % of control
